From patent publication US20070191350A1, “Combinations comprising alpha-2-delta ligands” (Pifizer Inc., priority 2004, published 2007)

Assay: Plasma concentration (Cmax) of gabapentin in the rat

Q: For `NCC1(CC(=O)O)CCCCC1` [gabapentin, 1-(aminomethyl)-cyclohexylacetic acid], which Cmax is on record?
A: 520 to 10500 ng/mL
